# Tests used:
# [1] = test system: patients with clinically stable coronary disease; experiment: LoDoCo Trial: colchicine 0.5 mg/day added to standard secondary prevention therapies; type: in vivo, human
# Description: This study is described in PCT/AU2013/001261 and is hereby incorporated in its entirety by reference.
# All outcomes were evaluated by an experienced adjudicator blinded to the treatment allocation.
# Patients with a history of bypass surgery were only eligible if they had undergone bypass surgery more than 10 years before, or had angiographic evidence of graft failure or had undergone stenting since their bypass surgery. All patients signed informed consent before randomization.
# Patients who were intolerant to therapy remained in the study, and were followed in the usual manner and included in the primary intention to treat analysis.
# The drug was dispensed by their usual chemist, and if requested, patients were reimbursed for the cost of these scripts. All other treatments were continued as usual.
# An acute coronary syndrome (ACS) was defined as either (a) Acute Myocardial Infarction (AMI), as evidenced by acute ischemic chest pain associated with a rise in serum troponin above the upper limit of normal or (b) Unstable Angina (UA), as evidenced by a recent acceleration of the patient's angina unassociated with a rise in serum troponin but associated with angiographic evidence of a change in the patient's coronary anatomy. (Unstable Angina Braunwald classification types IB and IIB). The ACS was characterized as being stent-related if there was evidence of significant in-stent stenosis or acute stent thrombosis. Out of Hospital Cardiac Arrest was defined as either a sudden death as evidenced on the patient's death certificate, or a non-fatal out of hospital cardiac arrest, defined as a recovery from sudden collapse associated with documented asystole, ventricular tachycardia or ventricular fibrillation.
# The primary efficacy outcome was the composite, ACS, fatal or non-fatal out of hospital cardiac arrest or non-cardio-embolic ischemic stroke. […]
# All time to event outcomes were calculated in days by subtracting the date of randomization from either: (1) the date of event or death; or (2) the trial termination date for those patients not experiencing the defined event. […]
# [2] = test system: patients with clinically stable coronary disease; settings: Nidorf et al., JACC 2013; 0.5 mg/day in addition to statins and other standard therapies; cited from earlier work
smiles,measurement,setting,value
"COc1cc2c(c(OC)c1OC)-c1ccc(OC)c(=O)cc1[C@@H](NC(C)=O)CC2 [colchicine, (−)-N-[(7S, 12aS)-1,2,3,10-tetramethoxy-9-oxo-5,6,7,9-tetrahydrobenzo[a]heptalen-7-yl]-acetamide]",patients with ACS unrelated to stent disease associated with an AMI,[1]; 4/282 patients,1.4%
same,patients with ACS unrelated to stent disease associated with UA,[1]; 5/282 patients,1.8%
same,"patients with a primary outcome (ACS, out of hospital cardiac arrest or non-cardio-embolic ischemic stroke)","[1]; intention to treat, 15/282 patients, colchicine 0.5 mg/day, median follow up 36 months",5.3%
same,prevention of cardiovascular events,[2],appeared effective for the prevention of cardiovascular events

# — patent US20250152527A1 (priority 2023, published 2025)
